Source: patent publication US11219212B2, “Herbicidal composition comprising cinmethylin and imazamox” (BASF Agro B.V., priority 2015, dated 2022)

Tests used:
Format in all cases: in vivo
Chenopodium album [1] = assay: Greenhouse postemergence herbicidal activity; details: CHEAL
Experimental: (§1) The test plants have been seeded, separately for each species, in plastic containers in sandy loamy soil containing 5% of organic matter.
(§2) For the post emergence treatment, the plants were first grown to the 2 leaf station (GS 12). Here, the herbicidal compositions were suspended or emulsified in water as distribution medium and sprayed using finely distributing nozzles.
(§3) The plants have been cultivated due to their individual requirements at 10-25° C. and 20-35° C. The plants were irrigated due to their necessity.
(§4) The racemic mixture (±)-2-exo-(2-M ethylbenzyloxy)-1-methyl-4-isopropyl-7-oxabicyclo[2.2.1]heptane was used as herbicide A and formulated as emulsifiable concentrates with an active ingredient concentration of 50 g/l, 100 g/I or 750 g/I respectively.
(§5) Imazamox (herbicide B.1) was used as a water dispersible granule (70% WG).
(§6) In the following experiments, the herbicidal activity for the individual herbicidal compositions (solo and mixture applications) was assessed 20 days after treatment (DAT).
(§7) The evaluation for the damage on undesired weeds caused by the chemical compositions was carried out using a scale from 0 to 100%, compared to the untreated control plants. Here, 0 means no damage and 100 means complete destruction of the plants.
(§8) E=X+Y−(X·Y/100) where X=effect in percent using herbicide A at an application rate a; • Y=effect in percent using herbicide B at application rate b; • E=expected effect (in %) of herbicide A+herbicide B at application rates a+b.

Avena fatua [2] = assay: Greenhouse postemergence herbicidal activity; details: imazamox solo 4.4 g ai/ha, AVEFA, 20 DAT
Experimental: as §1, §2, §3, §4, §5, §6, §7, §8

Polygonum convolvulus [3] = assay: Greenhouse postemergence herbicidal activity; details: POLCO
Experimental: as §1, §2, §3, §4, §5, §6, §7, §8

Setaria viridis [4] = assay: Greenhouse postemergence herbicidal activity; details: imazamox solo 4.4 g ai/ha, SETVI
Experimental: as §1, §2, §3, §4, §5, §6, §7, §8

Sorghum halepense [5] = assay: Greenhouse postemergence herbicidal activity; details: SORHA, 20 DAT
Experimental: as §1, §2, §3, §4, §5, §6, §7, §8

Anthemis arvensis [6] = assay: Greenhouse postemergence herbicidal activity; details: imazamox solo 35 g ai/ha, ANTAR, 20 DAT
Experimental: as §1, §2, §3, §4, §5, §6, §7, §8

Abutilon theophrasti = assay: Greenhouse preemergence herbicidal activity; details: ABUTH, 20 DAT
Experimental: as §1
(§9) The containers were irrigated gently to promote germination and growth and subsequently covered with transparent plastic hoods until the plants had rooted.
as §3, §4, §5, §6, §7, §8

Geranium dissectum = assay: Greenhouse preemergence herbicidal activity; details: imazamox solo 8.8 g ai/ha, GERDI, 20 DAT
Experimental: as §1, §9, §3, §4, §5, §6, §7, §8

Lolium multiflorum = assay: Greenhouse preemergence herbicidal activity; details: LOLMU
Experimental: as §1, §9, §3, §4, §5, §6, §7, §8

Chenopodium album [7] = assay: Greenhouse preemergence herbicidal activity; details: imazamox solo 4.4 g ai/ha, CHEAL, 20 DAT
Experimental: as §1, §9, §3, §4, §5, §6, §7, §8

Avena fatua [8] = assay: Greenhouse preemergence herbicidal activity; details: AVEFA
Experimental: as §1, §9, §3, §4, §5, §6, §7, §8

Polygonum convolvulus [9] = assay: Greenhouse preemergence herbicidal activity; details: imazamox solo 8.8 g ai/ha, POLCO, 20 DAT
Experimental: as §1, §9, §3, §4, §5, §6, §7, §8

Galium aparine = assay: Greenhouse preemergence herbicidal activity; details: GALAP, 20 DAT
Experimental: as §1, §9, §3, §4, §5, §6, §7, §8

Setaria viridis [10] = assay: Greenhouse preemergence herbicidal activity; details: SETVI
Experimental: as §1, §9, §3, §4, §5, §6, §7, §8

Amaranthus retroflexus = assay: Greenhouse preemergence herbicidal activity; details: AMARE
Experimental: as §1, §9, §3, §4, §5, §6, §7, §8

Stellaria media = assay: Greenhouse preemergence herbicidal activity; details: STEME
Experimental: as §1, §9, §3, §4, §5, §6, §7, §8

Echinochloa crus-galli = assay: Greenhouse preemergence herbicidal activity; details: ECHCG, 20 DAT
Experimental: as §1, §9, §3, §4, §5, §6, §7, §8

Sorghum halepense [11] = assay: Greenhouse preemergence herbicidal activity; details: imazamox solo 4.4 g ai/ha, SORHA, 20 DAT
Experimental: as §1, §9, §3, §4, §5, §6, §7, §8

Anthemis arvensis [12] = assay: Greenhouse preemergence herbicidal activity; details: ANTAR
Experimental: as §1, §9, §3, §4, §5, §6, §7, §8

[13] = imazamox solo 4.4 g ai/ha, 20 DAT
[14] = imazamox solo 8.8 g ai/ha, 20 DAT
[15] = imazamox solo 17.5 g ai/ha, 20 DAT
[16] = imazamox solo 35 g ai/ha, 20 DAT
[17] = imazamox solo 4.4 g ai/ha, 20 DAT (line of 25 + 4.4)
[18] = imazamox solo 8.8 g ai/ha, 20 DAT (line of 50 + 8.8)
[19] = imazamox solo 17.5 g ai/ha, 20 DAT (line of 100 + 17.5)
[20] = imazamox solo 35 g ai/ha, 20 DAT (line of 200 + 35)

Compound `COCc1cnc(C2=NC(C)(C(C)C)C(=O)N2)c(C(=O)O)c1` (racemic) [imazamox, 2-[(RS)-4-isopropyl-4-methyl-5-oxo-2-imidazolin-2-yl]-5-methoxymethylnicotinic acid] has a herbicidal activity (Chenopodium album [1]; [13]) of 90%, a herbicidal activity (Chenopodium album [1]; imazamox solo 4.4 g ai/ha, 20 DAT (line of 43.8 + 4.4)) of 90% and a herbicidal activity (Chenopodium album [1]; [14]) of 95%. For the same compound, the herbicidal activity (Avena fatua [2]) was 70%, the herbicidal activity (Polygonum convolvulus [3]; [13]) was 90% and the herbicidal activity (Polygonum convolvulus [3]; [15]) was 95%. For the same compound, the herbicidal activity (Polygonum convolvulus [3]; imazamox solo 17.5 g ai/ha, 20 DAT (line of 175 + 17.5)) was 95%, the herbicidal activity (Polygonum convolvulus [3]; [16]) was 95% and the herbicidal activity (Setaria viridis [4]; 20 DAT) was 95%. For the same compound, the herbicidal activity (Setaria viridis [4]; 20 DAT (line of 43.8 + 4.4)) was 95%, the herbicidal activity (Sorghum halepense [5]; imazamox solo 4.4 g ai/ha) was 90% and the herbicidal activity (Sorghum halepense [5]; imazamox solo 17.5 g ai/ha) was 95%. It also gave a herbicidal activity (Sorghum halepense [5]; imazamox solo 35 g ai/ha) of 98%, a herbicidal activity (Anthemis arvensis [6]) of 98% and a herbicidal activity (Abutilon theophrasti; imazamox solo 17.5 g ai/ha) of 70%. For the same compound, the herbicidal activity (Abutilon theophrasti; imazamox solo 35 g ai/ha) was 75%, the herbicidal activity (Geranium dissectum) was 0% and the herbicidal activity (Lolium multiflorum; [13]) was 0%. It also gave a herbicidal activity (Lolium multiflorum; [17]) of 0%, a herbicidal activity (Lolium multiflorum; [14]) of 70% and a herbicidal activity (Chenopodium album [7]) of 0%. It also gave a herbicidal activity (Avena fatua [8]; [14]) of 20%, a herbicidal activity (Avena fatua [8]; [18]) of 20% and a herbicidal activity (Avena fatua [8]; [15]) of 65%. For the same compound, the herbicidal activity (Avena fatua [8]; [19]) was 65%, the herbicidal activity (Polygonum convolvulus [9]) was 25% and the herbicidal activity (Galium aparine; imazamox solo 4.4 g ai/ha) was 0%. It also gave a herbicidal activity (Galium aparine; imazamox solo 35 g ai/ha) of 75%, a herbicidal activity (Setaria viridis [10]; [17]) of 20% and a herbicidal activity (Setaria viridis [10]; imazamox solo 4.4 g ai/ha, 20 DAT (line of 62.5 + 4.4)) of 60%. It also gave a herbicidal activity (Setaria viridis [10]; [14]) of 65%, a herbicidal activity (Amaranthus retroflexus; [13]) of 75% and a herbicidal activity (Amaranthus retroflexus; [17]) of 75%. For the same compound, the herbicidal activity (Amaranthus retroflexus; [14]) was 90%, the herbicidal activity (Amaranthus retroflexus; [15]) was 95% and the herbicidal activity (Amaranthus retroflexus; [19]) was 95%. For the same compound, the herbicidal activity (Amaranthus retroflexus; [16]) was 95%, the herbicidal activity (Amaranthus retroflexus; [20]) was 95% and the herbicidal activity (Stellaria media; [14]) was 80%. It also gave a herbicidal activity (Stellaria media; [18]) of 80%, a herbicidal activity (Stellaria media; [15]) of 95% and a herbicidal activity (Echinochloa crus-galli; imazamox solo 4.4 g ai/ha) of 30%. For the same compound, the herbicidal activity (Echinochloa crus-galli; imazamox solo 8.8 g ai/ha) was 40%, the herbicidal activity (Sorghum halepense [11]) was 10% and the herbicidal activity (Anthemis arvensis [12]; [13]) was 0%. The herbicidal activity (Anthemis arvensis [12]; [14]) was 0%, the herbicidal activity (Anthemis arvensis [12]; [15]) was 20% and the herbicidal activity (Anthemis arvensis [12]; [16]) was 65%. For the same compound, the herbicidal activity (Anthemis arvensis [12]; [20]) was 65%.
